Source: patent US20240216249A1, “COLLAGEN ACTIVATOR, AND PREPARATION METHOD AND APPLICATION THEREOF” (Hangzhou NUPTEC Rising Bioproducts Incorporation, Ltd., priority 2022, published 2024)

What was measured:
[1] = tested on: blood vessels of embryonated eggs; experiment: safety test on blood vessels of embryonated eggs; details: positive comparative group, 0.05 M SDS, 5 eggs
collagen III = experiment: cell experiments, expression of collagen III; format: cell-based
collagen XVII = experiment: cell experiments, expression of collagen XVII; format: cell-based
collagen I = experiment: cell experiments, expression of collagen I; format: cell-based

CCCCCCCCCCCCOS(=O)(=O)[O-].[Na+] [SDS, sodium dodecyl sulfate]
irritation judgement [1]: non-irritants
bleeding of blood vessels of embryonated eggs ([1]; 30 min): appear the bleeding phenomenon

CC1(C)[C@@H](O[C@H]2O[C@H](C(=O)[O-])[C@@H](O)[C@H](O)[C@H]2O[C@@H]2O[C@H](C(=O)[O-])[C@@H](O)[C@H](O)[C@H]2O)CC[C@]2(C)[C@H]3C(=O)C=C4[C@@H]5C[C@@](C)(C(=O)O)CC[C@]5(C)CC[C@@]4(C)[C@]3(C)CC[C@@H]12.[K+].[K+] [dipotassium glycyrrhizinate]
content having a promoting effect on the expression of collagen III (collagen III): 0.001%-0.25
optimal content (highest expression) for collagen III (collagen III): 0.1%
content having a promoting effect on the expression of collagen XVII (collagen XVII): 0.001%-0.01
optimal content (highest expression) for collagen XVII (collagen XVII): 0.01%
content having a promoting effect on the expression of collagen I (collagen I): 0.001%-0.1
optimal content (highest expression) for collagen I (collagen I): 0.01%
